The record followed here is the supplement of paper PMC3974653.

Structures are written as SMILES. Where a name gives a salt, the structure may show the parent alone.

The experiment deals with MTT (mouse pheochromocytoma). The experiment can be described thus: IC50 of cell viability (ATP content). To be noted: (24 or 48 h). In a few lines: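 Each well of a white 1536-well plate received 5 µl of MTT mouse pheochromocytoma cells at 200,000 cells/ml in DMEM containing 5% FBS and 1% horse serum. After overnight culture at 37°C, 5% CO2, cells were exposed for 24 or 48 hrs to 23 nl of library compound in DMSO, pinned at 8 final concentrations from 0.5 nM to 46 µM. CellTiter-Glo luminescence was read after 15 minutes, and IC50 was obtained from a four-parameter logistic fit of signals normalised to positive-control and DMSO wells.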

For the compound `CCCC(=O)Nc1ncnc2c1ncn2C1OC2COP(=O)(O)OC2C1OC(=O)CCC` (configuration not stated) [BUCLADESINE], the “IC50 of cell viability” value was greater than 46 µM. Then `CCCCC1C(=O)NC(=O)N(C2CCCCC2)C1=O` (configuration not stated) [BUCOLOME], with greater than 46 µM; and `C[C@]12CC[C@H](O)C[C@H]1CCC1C2CC[C@]2(C)[C@@H](c3ccc(=O)oc3)C[C@H]3O[C@]132` (some centres not stated) [BUFOGENIN], with greater than 46 µM; and `CCCCNC(=N)NC(=N)N` [BUFORMIN HYDROCHLORIDE], with greater than 46 µM. Then `CCCCN1CCCC1C(=O)Nc1c(C)cc(C)cc1C` (configuration not stated) [BUMECAINUM], with greater than 46 µM.

As for `CCCC(=O)N1CCCN(c2nc(N)c3cc(OC)c(OC)cc3n2)CC1` [BUNAZOSIN HYDROCHLORIDE], the “IC50 of cell viability” value was greater than 46 µM. Then `CCOC(=O)c1cnc2cc(OCC(C)C)c(OCC(C)C)cc2c1O` [BUQUINOLATE], with greater than 46 µM; and `O=C1CC2(CCCC2)CC(=O)N1CCCCN1CCN(c2ncccn2)CC1` [BUSPIRONE], with greater than 46 µM. The value for `CCCCOC(=O)c1ccc(N)cc1` [BUTAMBEN] was greater than 46 µM; that for `CCC(C(=O)OCCN(CC)CC)c1ccccc1` (configuration not stated) [BUTETAMATUM] was greater than 46 µM. Regarding `CCCC[N+]1(C)C2CC(OC(=O)C(CO)c3ccccc3)CC1C1OC12` (configuration not stated) [BUTYLSCOPOLAMMONIUM], the “IC50 of cell viability” value was greater than 46 µM. The value for `CCOC(=O)O[C@@H](C)OC(=O)[C@@H]1[N@]2[C@@H](SC1(C)C)[C@H](NC(=O)[C@@H](N)C3=CC=CC=C3)C2=O` [Bacampicillin hydrochloride] was greater than 46 µM. Then `CC[C@H](C)[C@H](N)\C1=N\[C@@H](CS1)C(=O)N[C@@H](CC(C)C)C(=O)N[C@@H](CCC(O)=O)C(=O)N[C@H]([C@@H](C)CC)C(=O)N[C@@H]2CCCCNC(=O)[C@@H](CC(N)=O)NC(=O)[C@@H](CC(O)=O)NC(=O)[C@@H](CC3=CN=C[NH]3)NC(=O)[C@@H](CC4=CC=CC=C4)NC(=O)[C@H](NC(=O)[C@@H](CCCN)NC2=O)[C@@H](C)CC` [Bacitracin], with greater than 46 µM; and `CN(C)C(=O)Oc1cc(OC(=O)N(C)C)cc([C@@H](O)CNC(C)(C)C)c1` [Bambuterol hydrochloride], with greater than 46 µM; and `CCCCNCC(O)c1ccc(O)cc1` (configuration not stated) [Bametano], with greater than 46 µM.

As for `CCN(CCO)CCn1c(Cc2ccccc2)nc2c1c(=O)n(C)c(=O)n2C` [Bamifylline Hydrochloride], the “IC50 of cell viability” value was greater than 46 µM. The value for `CCC1(CC)C(=O)NC(=O)NC1=O` [Barbital] was greater than 46 µM; that for `COC(=O)C1=C(C)NC(C)=C(C(=O)O[C@H]2CCN(Cc3ccccc3)C2)C1c1cccc([N+](=O)[O-])c1` (some centres not stated) [Barnidipine] was greater than 46 µM. The value for `Cc1c(-c2ccc(O)cc2)n(Cc2ccc(OCCN3CCCCCC3)cc2)c2ccc(O)cc12` [Bazedoxifene] was greater than 46 µM; that for `CCC(=O)OCC(=O)C1(OC(=O)CC)C(C)CC2C3CCC/4=C/C(=O)/C=C\C4(C)C3(Cl)C(O)CC12C` (configuration not stated) [Beclazone] was greater than 46 µM. Then `C[C@H]1C[C@H]2[C@@H]3CCC4=CC(=O)C=C[C@]4(C)[C@@]3(Cl)[C@@H](O)C[C@]2(C)[C@@]1(O)C(=O)CO` [Beclomethasone], with greater than 46 µM. Consider `O=C(c1cc2ccccc2o1)N1CCN(Cc2ccccc2)CC1` [Befuralina], for which the “IC50 of cell viability” value was greater than 46 µM. The value for `CCC1(C)CC(=O)NC(=O)C1` [Bemegride] was greater than 46 µM; that for `O=C(O)c1ccc(N[C@@H]2OC[C@@H](O)[C@@H](O)[C@@H]2O)cc1` [Benaxibine] was greater than 46 µM. The value for `CC1=C(C\C2=N\CCN2)C3=C(S1)C=CC=C3.OC(=O)C(O)=O` [Benazoline oxalate] was greater than 46 µM. `N[S+](=O)([O-])c1cc2c(cc1C(F)(F)F)N[C@H](Cc1ccccc1)N[S+]2(=O)[O-]` [Bendroflumethiazide]: the “IC50 of cell viability” value was greater than 46 µM.

Regarding `C/C(=C(/CCOP(=O)(O)O)SC(=O)c1ccccc1)N(C=O)Cc1cnc(C)nc1N` [Benfotiamine], the “IC50 of cell viability” value is greater than 46 µM.

As to `CC(NNC(=O)c1ccccc1)c1ccccc1` (configuration not stated) [Benmoxin], the “IC50 of cell viability” value is greater than 46 µM. Then `CCCCOc1cc(C(=O)OCCN(CC)CC)ccc1N` [Benoxinate hydrochloride], with greater than 46 µM.

For `O=C(CCCN1CCC(n2c(=O)[nH]c3ccccc32)CC1)c1ccc(F)cc1` [Benperidol], the “IC50 of cell viability” value is greater than 46 µM. The value for `N[C@@H](CO)C(=O)NNCc1ccc(O)c(O)c1O` [Benserazide hydrochloride] was greater than 46 µM; that for `O=C([O-])c1ccc(NC(=O)[C@H](Cc2ccc(O)cc2)NC(=O)c2ccccc2)cc1` [Bentiromide] was greater than 46 µM; that for `O=Cc1ccccc1` [Benzaldehyde] was greater than 46 µM. Turning to `CN1[C@@H]2CC[C@H]1C[C@@H](OC(c1ccccc1)c1ccccc1)C2` [Benzatropina], the “IC50 of cell viability” value was greater than 46 µM. Then `O=C1CCC(c2ccccc2)(C2CCN(Cc3ccccc3)CC2)C(=O)N1` (configuration not stated) [Benzetimidum], with greater than 46 µM. With `O=C(NO)c1ccccc1` [Benzhydroxamic acid], the “IC50 of cell viability” value was greater than 46 µM. Then `O=C(Cn1ccnc1[N+](=O)[O-])NCc1ccccc1` [Benznidazol], with greater than 46 µM; and `CCC1(c2ccccc2)C(=O)NC(=O)N(C(=O)c2ccccc2)C1=O` (configuration not stated) [Benzobarbital], with greater than 46 µM; and `CCOC(=O)c1ccc(N)cc1` [Benzocaine], with greater than 46 µM. As for `Cc1cc(Nc2ccccc2C(=O)O)ccc1Cl` [Benzoic acid, 2-[(4-chloro-3-methylphenyl)amino]-], the “IC50 of cell viability” value is greater than 46 µM.

Turning to `O=C(c1ccccc1)C(O)c1ccccc1` (configuration not stated) [Benzoin], the “IC50 of cell viability” value is greater than 46 µM. On to `CCCCNc1ccc(C(=O)OCCOCCOCCOCCOCCOCCOCCOCCOCCOC)cc1` [Benzonatate], for which the “IC50 of cell viability” value was greater than 46 µM. The value for `O=C(c1ccccc1)c1ccccc1` [Benzophenone] was greater than 46 µM; that for `O=C(OOC(=O)c1ccccc1)c1ccccc1` [Benzoyl peroxide] was greater than 46 µM; that for `N[S+]([O-])(=O)C1=C(Cl)C=C2\N=C(\CSCC3=CC=CC=C3)N[S+]([O-])(=O)C2=C1` [Benzthiazide] was greater than 46 µM. On to `CN1[C@@H]2CC[C@H]1CC(OC(c1ccccc1)c1ccccc1)C2.C[S+](=O)([O-])O` (some centres not stated) [Benztropine], for which the “IC50 of cell viability” value was greater than 46 µM.

Turning to `CN(C)CCCOc1nn(Cc2ccccc2)c2ccccc12` [Benzydamine hydrochloride], the “IC50 of cell viability” value was greater than 46 µM. The value for `OCc1ccccc1` [Benzyl alcohol] was greater than 46 µM; that for `O=C(OCc1ccccc1)c1ccccc1` [Benzyl benzoate] was greater than 46 µM. The value for `N[S+](=O)([O-])c1cc2c(cc1Cl)N[C@H](Cc1ccccc1)N[S+]2(=O)[O-]` [Benzylhydrochlorothiazide] was greater than 46 µM; that for `Nc1ccc([S+](=O)([O-])NCc2ccccc2)cc1` [Benzylsulfamide] was greater than 46 µM.

Consider `COc1c(O)cc2c(c1O)[C@H]1O[C@@H](CO)[C@@H](O)[C@@H](O)[C@@H]1OC2=O.O` [Bergenin monohydrate], for which the “IC50 of cell viability” value is greater than 46 µM. The value for `CC(C)C[C@H](NC(=O)[C@@H](O)[C@H](N)Cc1ccccc1)C(=O)O.Cl` [Bestatin hydrochloride] was greater than 46 µM.

Consider `CNCCc1ccccn1.C[S+](=O)([O-])O` [Betahistine mesylate], for which the “IC50 of cell viability” value is greater than 46 µM. Turning to `C[N+](C)(C)CC(=O)O` [Betaine hydrochloride], the “IC50 of cell viability” value is greater than 46 µM. The value for `CCC(=O)OCC(=O)C1(OC(=O)CC)C(C)CC2C3CCC4=CC(=O)C=CC4(C)C3(F)C(O)CC21C` (configuration not stated) [Betamethasone dipropionate] was greater than 46 µM.

With `C[C@H]1C[C@H]2[C@@H]3CCC4=CC(=O)C=C[C@]4(C)[C@@]3(F)[C@@H](O)C[C@]2(C)[C@@]1(O)C(=O)CO` [Betamethasone], the “IC50 of cell viability” value was greater than 46 µM.

On to `NCCc1cc[nH]n1` [Betazole hydrochloride], for which the “IC50 of cell viability” value was greater than 46 µM. Take `C/N=C(\NCc1ccccc1)[NH2+]C.C/N=C(\NCc1ccccc1)[NH2+]C.O=S(=O)([O-])[O-]` [Bethanidine Sulfate (2:1)]: the “IC50 of cell viability” value was greater than 46 µM. On to `COc1ccc(CCNC[C@H](O)COc2cccc(C)c2)cc1OC` [Bevantolol], for which the “IC50 of cell viability” value is greater than 46 µM. `CC(C)(Oc1ccc(CCNC(=O)c2ccc(Cl)cc2)cc1)C(=O)O` [Bezafibrate]: the “IC50 of cell viability” value was greater than 46 µM. The value for `[H][C@](C)(O)[C@@]1([H])C(=O)[N@]2C(C([O-])=O)=C(SC3CN4C=NC=[N+]4C3)[C@@]([H])(C)C12[H]` (some centres not stated) [Biapenem] was greater than 46 µM. The value for `CNCCCCOc1ccccc1Cc1ccccc1` [Bifemelane] was greater than 46 µM. With `O=C(COCCOCCOCC(=O)Nc1c(I)cc(I)c(C(=O)O)c1I)Nc1c(I)cc(I)c(C(=O)O)c1I` [Biliscopin], the “IC50 of cell viability” value is greater than 46 µM. The value for `NCc1ccccc1Sc1ccccc1CO` [Bipenamol hydrochloride] was greater than 46 µM; that for `OC(CCN1CCCCC1)(c1ccccc1)C1CC2C=CC1C2` (configuration not stated) [Biperiden] was greater than 46 µM; that for `CC(=O)Oc1ccc(C(c2ccc(OC(C)=O)cc2)c2ccccn2)cc1` [Bisacodyl] was greater than 46 µM.
